Consider six compounds from PubChem BioAssay (NCI).

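How tested: cells in 96-well plates exposed to compound for 48 hours at five concentrations. GI50: concentration for 50% inhibition of growth. Definition used: TGI = concentration required for complete inhibition of growth.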

Among the test systems are UACC-62 melanoma; SW-620 colon; NCI-H226 lung; RXF 393 renal; COLO 205 colon; SNB-19 CNS; IGROV1 ovarian; HCT-116 colon; SN12C renal; HOP-62 NSCLC.
Holding throughout (assay): NCI-60 cell line screen, 48 h

Turning to `CCOC(=O)N(Cc1cccs1)c1cc(OC)c(OC)c(OC)c1`, the TGI in the assay with UACC-62 melanoma is > 100 µM; with SW-620 colon, > 100 µM; in the assay with NCI-H226 lung it was > 100 µM; in the assay with RXF 393 renal it was > 100 µM; with COLO 205 colon, 32.9 µM; in the assay on SNB-19 CNS, > 100 µM. Moreover, the TGI in the assay on IGROV1 ovarian, in the assay with HCT-116 colon, in the assay on SN12C renal and in the assay on HOP-62 NSCLC was > 100 µM in each case.
On to `Cn1c(=S)[nH]c2sc3c(c2c1=O)CCSC3`, for which the TGI was > 100 µM in the assay with UACC-62 melanoma; > 100 µM with SW-620 colon; 88.6 µM in the assay on NCI-H226 lung; 14.7 µM in the assay on RXF 393 renal; > 100 µM in the assay on COLO 205 colon; > 100 µM in the assay on SNB-19 CNS. Moreover, the TGI was > 100 µM in the assay with IGROV1 ovarian, > 100 µM with HCT-116 colon, > 100 µM with SN12C renal and 66.3 µM in the assay on HOP-62 NSCLC.
As for `O=C(CCCCCCC(=O)Nc1ccc(N(CCCl)CCCl)cc1)NO`, the GI50 in the assay with UACC-62 melanoma is 1.09 µM; with SW-620 colon it was 1.71 µM; with NCI-H226 lung it was 4.01 µM; in the assay with RXF 393 renal, 1.64 µM; in the assay on COLO 205 colon, 4.4 µM; with SNB-19 CNS it was 4.12 µM. The GI50 was 2.51 µM in the assay with IGROV1 ovarian, 1.97 µM in the assay on HCT-116 colon, 0.8 µM in the assay on SN12C renal and 2.98 µM in the assay on HOP-62 NSCLC. For the same compound, the TGI with UACC-62 melanoma was 5.09 µM; with SW-620 colon it was 22 µM; in the assay on NCI-H226 lung it was 21 µM; in the assay on RXF 393 renal, 4.74 µM; in the assay on COLO 205 colon it was 19.9 µM; in the assay with SNB-19 CNS, 29 µM. Further, the TGI turned out to be 21.2 µM in the assay on IGROV1 ovarian, 12.9 µM in the assay on HCT-116 colon, 18.6 µM in the assay on SN12C renal and 13.5 µM in the assay on HOP-62 NSCLC.
For the compound `COc1cc(C=C2C(C)=NN(c3cccc(Cl)c3)C23SCC(=O)N3c2nc3ccccc3s2)ccc1O` (stereo not given), the TGI in the assay with UACC-62 melanoma was 96.1 µM; with SW-620 colon, 96.9 µM; in the assay on NCI-H226 lung, > 80.7 µM; with RXF 393 renal it was 62.7 µM; in the assay with COLO 205 colon, 32.9 µM; in the assay on SNB-19 CNS it was > 100 µM. The TGI with IGROV1 ovarian is > 100 µM; in the assay with HCT-116 colon, 65.3 µM; in the assay on SN12C renal, > 100 µM; with HOP-62 NSCLC, 91.5 µM.
With `CNC(=O)OC(C)CN1c2ccccc2Sc2ccc(Cl)cc21` (stereo not given), the TGI in the assay on UACC-62 melanoma, in the assay on SW-620 colon, in the assay on NCI-H226 lung, in the assay on RXF 393 renal, in the assay with COLO 205 colon and with SNB-19 CNS was > 10 µM throughout. Moreover, the TGI in the assay on IGROV1 ovarian, in the assay on HCT-116 colon, with SN12C renal and in the assay with HOP-62 NSCLC was > 10 µM throughout.
Regarding `Cc1nc(N)nc(N)c1-c1ccc(Cl)c(Cl)c1`, the TGI with UACC-62 melanoma was > 51.1 µM; in the assay with SW-620 colon, > 100 µM; with NCI-H226 lung, > 100 µM; in the assay with RXF 393 renal it was > 79.9 µM; in the assay with COLO 205 colon, > 67.5 µM; in the assay on SNB-19 CNS it was > 100 µM. The TGI with IGROV1 ovarian, in the assay on HCT-116 colon, in the assay on SN12C renal and in the assay on HOP-62 NSCLC was > 100 µM each time.
